In assay [1] the target is T1, Nav1.7 D816R (Homo sapiens, UniProt Q15858, D827R).
T1 construct: expressed in transfected cells; host or cells: HEK293 (HEK293T) cells, transient
In words: Whole-cell patch clamp, Nav1.7 mutant D816R in HEK293 cells. In kind it is cell-based. An excerpt:
We next investigated the critical residues in DIIS3-S4 linker that determined the sensitivity of Nav1.7 to JZTX-34. An acidic residue, D816, is present in the DIIS3-S4 linker of Nav1.7, while the corresponding residue in Nav1.5 is an alkaline amino acid, R800. To determine whether the acidic residue D816 occupies an important role in toxin binding, we constructed two mutants: D816R of Nav1.7 and R800D of Nav1.5. One µM of JZTX-34 inhibited 54.3 ± 5.2% of WT Nav1.7 currents (Figure 4A), but only 16.8 ± 4.6% currents of D816R were inhibited at the same concentration (Figure 4B). […] To further confirm the key role of D816R in blocking Nav1.7 by JZTX-34, we examined the effect of JZTX-34 on Nav1.5 mutant R800D. […] Thus, the acidic residue D816 in DIIS3-S4 linker may be critical for the sensitivity of Nav1.7 to JZTX-34.
Figure 4 Effects of JZTX-34 on mutants of Nav1.7 and Nav1.5. (A) Amino acid sequence alignment of DII S3-S4 linker of Nav1.5 and Nav1.7 and schematic diagram of sodium channel α subunit. The positions of amino acids of interest are shaded in bold black. […]
(§1) The HEK293T cells were maintained in standard culture conditions (5% CO2 and 37 °C). […] After culturing for 36–72 h, cells with obvious green fluorescence were selected for sodium currents recordings the internal solution for sodium currents recording that contained (in mM) 140 CsF, 5 NaCl, 10 HEPES, 3 Na2-ATP, and 10 EGTA. […]
(§2) Sodium currents were recorded from DRG, HEK293, and ND cells by the whole-cell patch-clamp technique at 25 °C. […] Experiments date were acquired from whole-cell Axon 700B patch clamp amplifier (Molecular Devices, Sunnyvale, CA, USA) and analyzed by the program Clampfit10.0 (Molecular Devices, Sunnyvale, CA, USA) and Sigmaplot. […]
Data from Axon 700B patch clamp were analyzed by Clampfit10.0 (Molecular Devices, Sunnyvale, CA, USA). […] The G-V curves were obtained by calculating the conductance (G) at each voltage (V) using the equation G = I/(V1 − Vrev), with Vrev being the reversal potential determined for each cell individually. […]

Assay [2] deals with Nav1.5. Nature of the assay: Whole-cell patch clamp, WT Nav1.5 in HEK293 cells. In kind it is cell-based, rat. The conditions noted are these: 1 µM, −10 mV from −80 mV.
Description: Nine sodium channel subtypes have been identified and classified as TTX-S (Nav1.1–Nav1.4, Nav1.6, and Nav1.7) or TTX-R types (Nav1.5, Nav1.8, and Nav1.9). […] However, the subtype selectivity of JZTX-34 on the subtype of sodium channel is still unknown. In this work, effects of JZTX-34 on VGSC subtypes (Nav1.1–Nav1.8) were examined. Nav1.1–Nav1.7 were transfected into HEK293 cells and Nav1.8 currents were expressed in ND cells. Inward sodium currents were elicited by a 50 ms depolarizing potential to −10 mV from a holding potential of −80 mV every 5 s. […] No effects on other sodium channel subtypes were found (Nav1.1, Nav1.2, Nav1.4–Nav1.6, and Nav1.8) (Figure S2). […]
as §1, §2
Background: Patch clamp records ionic current or voltage across a cell membrane.

“Also recorded” adds a separate entry of the source. Residues, ends and D or L forms follow the SMILES beside them.

What is called inhibition is the share of the control response that was lost under treatment. As usually defined, the IC50 is the concentration that gives 50% inhibition. Read a low IC50 as higher potency.

T1 sequence (Q15858 other isoform, or with tags, fused parts or gaps D816R): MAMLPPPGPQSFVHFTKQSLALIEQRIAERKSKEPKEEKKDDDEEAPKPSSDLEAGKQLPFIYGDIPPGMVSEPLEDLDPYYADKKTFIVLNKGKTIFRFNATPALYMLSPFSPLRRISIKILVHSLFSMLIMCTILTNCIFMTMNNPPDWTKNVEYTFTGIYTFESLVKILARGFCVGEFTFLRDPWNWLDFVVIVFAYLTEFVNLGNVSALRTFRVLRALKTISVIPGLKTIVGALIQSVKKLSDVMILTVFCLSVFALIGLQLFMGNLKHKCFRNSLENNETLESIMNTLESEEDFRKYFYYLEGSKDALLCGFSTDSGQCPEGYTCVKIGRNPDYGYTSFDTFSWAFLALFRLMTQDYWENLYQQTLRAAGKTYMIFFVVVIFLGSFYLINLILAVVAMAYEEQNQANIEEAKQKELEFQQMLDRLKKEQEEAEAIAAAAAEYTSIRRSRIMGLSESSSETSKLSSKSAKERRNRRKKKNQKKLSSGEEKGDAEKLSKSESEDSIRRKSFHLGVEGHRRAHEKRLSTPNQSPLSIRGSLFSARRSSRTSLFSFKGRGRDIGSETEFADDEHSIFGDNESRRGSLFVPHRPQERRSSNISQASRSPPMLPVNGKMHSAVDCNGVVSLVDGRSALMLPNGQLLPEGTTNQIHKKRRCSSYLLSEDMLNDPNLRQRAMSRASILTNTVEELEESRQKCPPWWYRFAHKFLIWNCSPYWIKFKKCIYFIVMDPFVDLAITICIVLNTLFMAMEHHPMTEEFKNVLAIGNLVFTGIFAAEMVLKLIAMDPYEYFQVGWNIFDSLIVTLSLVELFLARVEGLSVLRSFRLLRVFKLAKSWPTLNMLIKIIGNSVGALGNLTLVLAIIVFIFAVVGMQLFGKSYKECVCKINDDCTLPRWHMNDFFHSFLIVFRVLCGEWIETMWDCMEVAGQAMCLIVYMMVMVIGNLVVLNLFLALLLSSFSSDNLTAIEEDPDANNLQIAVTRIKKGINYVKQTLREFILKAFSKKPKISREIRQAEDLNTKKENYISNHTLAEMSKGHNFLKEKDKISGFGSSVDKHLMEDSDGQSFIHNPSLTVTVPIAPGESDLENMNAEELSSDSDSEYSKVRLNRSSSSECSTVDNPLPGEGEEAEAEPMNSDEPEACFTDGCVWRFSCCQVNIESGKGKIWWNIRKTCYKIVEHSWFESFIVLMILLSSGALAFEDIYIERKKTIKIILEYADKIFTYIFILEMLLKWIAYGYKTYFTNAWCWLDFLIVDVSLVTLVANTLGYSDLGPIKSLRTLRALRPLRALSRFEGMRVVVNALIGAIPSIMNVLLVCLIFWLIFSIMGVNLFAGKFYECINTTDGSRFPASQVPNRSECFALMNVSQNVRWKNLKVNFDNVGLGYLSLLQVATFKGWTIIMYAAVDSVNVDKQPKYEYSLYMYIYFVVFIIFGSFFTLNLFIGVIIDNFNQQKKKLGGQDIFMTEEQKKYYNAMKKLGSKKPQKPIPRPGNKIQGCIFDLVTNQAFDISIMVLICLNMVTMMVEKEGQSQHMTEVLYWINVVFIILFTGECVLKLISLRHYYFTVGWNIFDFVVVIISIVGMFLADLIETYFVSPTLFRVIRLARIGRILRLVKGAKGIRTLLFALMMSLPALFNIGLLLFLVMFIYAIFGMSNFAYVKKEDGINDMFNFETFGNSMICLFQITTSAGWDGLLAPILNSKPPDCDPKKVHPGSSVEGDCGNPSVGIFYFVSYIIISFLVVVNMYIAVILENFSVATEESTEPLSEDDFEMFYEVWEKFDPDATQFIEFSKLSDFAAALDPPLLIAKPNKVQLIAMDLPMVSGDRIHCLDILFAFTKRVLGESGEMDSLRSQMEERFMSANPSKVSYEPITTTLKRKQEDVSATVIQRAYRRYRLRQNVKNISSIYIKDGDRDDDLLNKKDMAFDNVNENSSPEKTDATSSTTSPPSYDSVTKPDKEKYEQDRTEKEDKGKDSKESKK
T1 sequence (Q07699 19-218, further chain): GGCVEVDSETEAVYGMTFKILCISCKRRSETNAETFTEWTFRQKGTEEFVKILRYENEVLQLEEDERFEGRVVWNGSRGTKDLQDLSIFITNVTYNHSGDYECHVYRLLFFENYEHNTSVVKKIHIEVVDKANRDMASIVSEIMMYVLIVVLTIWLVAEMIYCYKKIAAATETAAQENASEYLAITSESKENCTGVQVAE

Take `CC(C)C[C@@H]1NC(=O)[C@H](Cc2c[nH]c3ccccc23)NC(=O)[C@H](CCC(=O)O)NC(=O)[C@H](CCCNC(=N)N)NC(=O)[C@@H](NC(=O)[C@H](C)N)CSSC[C@@H]2NC(=O)[C@@H]3CSSC[C@@H](C(=O)N[C@H](C(=O)N[C@@H](Cc4c[nH]c5ccccc45)C(=O)N[C@@H](CC(=O)O)C(=O)N[C@@H](Cc4c[nH]c5ccccc45)C(=O)N[C@H](C(=O)N[C@H](C(=O)O)C(C)C)[C@@H](C)O)C(C)C)NC(=O)[C@H](Cc4c[nH]cn4)NC(=O)[C@H](Cc4ccc(O)cc4)NC(=O)[C@@H]4CCCN4C(=O)[C@H](Cc4c[nH]c5ccccc45)NC(=O)[C@H](CCCCN)NC(=O)[C@H](CCCCN)NC(=O)[C@H](CCCNC(=N)N)NC(=O)[C@H](CSSC[C@H](NC(=O)CNC(=O)CNC1=O)C(=O)N[C@@H](CO)C(=O)N[C@@H](CCCCN)C(=O)N[C@@H](CC(=O)O)C(=O)N[C@@H](C)C(=O)N[C@@H](CC(=O)O)C(=O)N3)NC(=O)[C@H](CCC(=O)O)NC(=O)[C@H](CC(C)C)NC(=O)[C@H](Cc1c[nH]cn1)NC(=O)[C@H](C)NC2=O` [JZTX-34, Jingzhaotoxin-34] (HELM PEPTIDE1{A.C.R.E.W.L.G.G.C.S.K.D.A.D.C.C.A.H.L.E.C.R.K.K.W.P.Y.H.C.V.W.D.W.T.V}$PEPTIDE1,PEPTIDE1,2:R3-16:R3|PEPTIDE1,PEPTIDE1,9:R3-21:R3|PEPTIDE1,PEPTIDE1,15:R3-29:R3$$$V2.0; N-terminus and C-terminus assumed): in assay [1] (HEK293, 1 µM, read-out: inhibition of Nav1.7 D816R currents), the inhibition at 1 µM was 16.8 ± 4.6%. In addition, in assay [1] (Hill fit, n = 5), the IC50 is 19.5 µM. Further, the “decrease of binding affinity by D816R vs WT Nav1.7” value in assay [1] (relative to WT Nav1.7) was “about 32 fold”. Also, the “effect on Nav1.5 currents” value in assay [2] is listed as “No effects; also recorded: resistant”.

The values above are taken from publication PMC5848165 (Toxins, 2018).
